According to ChEMBL document CHEMBL1201862, “PubChem BioAssay data set” (2004):
Calls of active or inactive are those of the source.

Columns and labels:
[1] = Trypanosoma cruzi growth suppression in host cells – NIH3T3 host cells, beta-gal luminescence, confirmation (AID 2044); format: functional, cell-based;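 also: intracellular parasites grown in NIH/3T3 mouse fibroblasts as host cells; luminescent beta-galactosidase reporter signal from transgenic T. cruzi replicating inside host cells; inhibitors lower the luminescence signal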
[2] = NIH3T3 cell viability loss – ATP luminescence, mouse fibroblasts, counter-screen, dose response (AID 2010); format: functional, cell-based;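 also: cells exposed to compound for about 90 hours before reading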
[3] = cells
[4] = M. tuberculosis H37Rv growth inhibitors, H37Rv strain (AID 1626); format: functional
[5] = target: T1, Aminopeptidase N (Plasmodium falciparum FcB1/Columbia, UniProt O96935); test: malaria alanyl aminopeptidase activity blockers – biochemical, fluorogenic H-Leu-NHMec substrate, 1536-well (AID 1445); set-up: species or system Plasmodium falciparum 3D7, 3D7
T1 sequence (O96935 whole entry): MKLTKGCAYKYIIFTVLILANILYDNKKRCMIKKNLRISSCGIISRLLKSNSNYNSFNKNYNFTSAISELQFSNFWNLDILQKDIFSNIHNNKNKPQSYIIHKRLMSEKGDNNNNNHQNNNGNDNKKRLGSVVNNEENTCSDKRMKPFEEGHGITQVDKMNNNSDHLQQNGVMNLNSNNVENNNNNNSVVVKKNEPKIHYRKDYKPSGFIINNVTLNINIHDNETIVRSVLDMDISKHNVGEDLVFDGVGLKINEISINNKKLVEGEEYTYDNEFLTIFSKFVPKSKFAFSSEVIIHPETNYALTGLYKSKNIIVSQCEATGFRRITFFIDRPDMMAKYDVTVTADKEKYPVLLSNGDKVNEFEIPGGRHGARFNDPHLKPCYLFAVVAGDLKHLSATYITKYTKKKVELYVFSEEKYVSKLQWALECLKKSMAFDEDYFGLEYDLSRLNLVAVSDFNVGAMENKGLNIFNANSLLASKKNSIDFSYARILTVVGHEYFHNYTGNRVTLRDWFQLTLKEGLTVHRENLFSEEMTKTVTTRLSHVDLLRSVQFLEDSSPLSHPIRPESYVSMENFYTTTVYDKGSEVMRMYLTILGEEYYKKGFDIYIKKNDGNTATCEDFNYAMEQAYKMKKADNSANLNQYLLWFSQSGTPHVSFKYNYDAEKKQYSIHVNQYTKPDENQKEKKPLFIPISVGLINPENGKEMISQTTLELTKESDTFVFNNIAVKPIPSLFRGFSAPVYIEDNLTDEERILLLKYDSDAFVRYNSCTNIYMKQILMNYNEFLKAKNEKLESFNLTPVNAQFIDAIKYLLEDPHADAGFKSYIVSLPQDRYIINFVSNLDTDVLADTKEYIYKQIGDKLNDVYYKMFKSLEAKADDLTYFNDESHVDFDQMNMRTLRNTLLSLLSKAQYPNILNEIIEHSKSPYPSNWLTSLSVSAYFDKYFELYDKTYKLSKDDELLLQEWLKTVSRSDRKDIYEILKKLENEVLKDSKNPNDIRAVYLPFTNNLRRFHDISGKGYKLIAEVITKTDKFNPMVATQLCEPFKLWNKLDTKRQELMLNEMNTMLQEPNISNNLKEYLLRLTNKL

[6] = NIH-3T3 fibroblast cytotoxicity, dose response, cytotoxicity control, cell-based, fluorescence, Alamar Blue, secondary assay (AID 2327); format: functional;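 also: NIH-3T3 mouse fibroblasts cultured with fluconazole at 8 µg/mL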
[7] = test system: Streptococcus sp. 'group A'; test: Streptococcus pyogenes SK(-)GAS viability under kanamycin – luminescence, BacTiterGlo, confirmation, counter-screen for streptokinase expression inhibitor project, dose response (AID 1900); format: functional, organism-based
[8] = target: T2, Streptokinase A (Streptococcus pyogenes serotype M1, UniProt P10520); test: viability-normalized secreted streptokinase activity reduction – plasminogen activation absorbance, OD405, dose response (AID 1914); format: functional, Streptococcus pyogenes M1 GAS;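 also: secreted streptokinase activity via plasminogen activation per viability signal from cell pellet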
T2 sequence (P10520 whole entry): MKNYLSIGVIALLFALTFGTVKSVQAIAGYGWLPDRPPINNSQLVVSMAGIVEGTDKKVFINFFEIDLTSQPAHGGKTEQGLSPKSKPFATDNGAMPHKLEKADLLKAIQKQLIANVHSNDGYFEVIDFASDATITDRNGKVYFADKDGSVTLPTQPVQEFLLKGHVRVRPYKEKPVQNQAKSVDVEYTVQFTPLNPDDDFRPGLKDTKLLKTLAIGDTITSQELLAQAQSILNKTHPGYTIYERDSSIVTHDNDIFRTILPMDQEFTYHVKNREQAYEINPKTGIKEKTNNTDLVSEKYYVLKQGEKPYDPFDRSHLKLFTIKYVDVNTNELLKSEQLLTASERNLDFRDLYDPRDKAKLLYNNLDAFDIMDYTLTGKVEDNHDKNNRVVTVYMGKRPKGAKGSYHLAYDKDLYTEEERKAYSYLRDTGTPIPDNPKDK

[9] = fluconazole-exposed Candida albicans growth modulators – fluorescence, retest, confirmation (AID 2467); format: functional, cell-based
[10] = test system: Streptococcus; test: GAS UMAA2166 growth inhibition – luminescence, BacTiterGlo, counter-screen for streptokinase expression inhibitor project, dose response (AID 1915); format: functional, organism-based;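 also: potency for reduction of bacterial viability or growth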
[11] = target: T3, Apoptotic protease-activating factor 1 (Homo sapiens, UniProt O14727); format: functional
T3 sequence (O14727 whole entry): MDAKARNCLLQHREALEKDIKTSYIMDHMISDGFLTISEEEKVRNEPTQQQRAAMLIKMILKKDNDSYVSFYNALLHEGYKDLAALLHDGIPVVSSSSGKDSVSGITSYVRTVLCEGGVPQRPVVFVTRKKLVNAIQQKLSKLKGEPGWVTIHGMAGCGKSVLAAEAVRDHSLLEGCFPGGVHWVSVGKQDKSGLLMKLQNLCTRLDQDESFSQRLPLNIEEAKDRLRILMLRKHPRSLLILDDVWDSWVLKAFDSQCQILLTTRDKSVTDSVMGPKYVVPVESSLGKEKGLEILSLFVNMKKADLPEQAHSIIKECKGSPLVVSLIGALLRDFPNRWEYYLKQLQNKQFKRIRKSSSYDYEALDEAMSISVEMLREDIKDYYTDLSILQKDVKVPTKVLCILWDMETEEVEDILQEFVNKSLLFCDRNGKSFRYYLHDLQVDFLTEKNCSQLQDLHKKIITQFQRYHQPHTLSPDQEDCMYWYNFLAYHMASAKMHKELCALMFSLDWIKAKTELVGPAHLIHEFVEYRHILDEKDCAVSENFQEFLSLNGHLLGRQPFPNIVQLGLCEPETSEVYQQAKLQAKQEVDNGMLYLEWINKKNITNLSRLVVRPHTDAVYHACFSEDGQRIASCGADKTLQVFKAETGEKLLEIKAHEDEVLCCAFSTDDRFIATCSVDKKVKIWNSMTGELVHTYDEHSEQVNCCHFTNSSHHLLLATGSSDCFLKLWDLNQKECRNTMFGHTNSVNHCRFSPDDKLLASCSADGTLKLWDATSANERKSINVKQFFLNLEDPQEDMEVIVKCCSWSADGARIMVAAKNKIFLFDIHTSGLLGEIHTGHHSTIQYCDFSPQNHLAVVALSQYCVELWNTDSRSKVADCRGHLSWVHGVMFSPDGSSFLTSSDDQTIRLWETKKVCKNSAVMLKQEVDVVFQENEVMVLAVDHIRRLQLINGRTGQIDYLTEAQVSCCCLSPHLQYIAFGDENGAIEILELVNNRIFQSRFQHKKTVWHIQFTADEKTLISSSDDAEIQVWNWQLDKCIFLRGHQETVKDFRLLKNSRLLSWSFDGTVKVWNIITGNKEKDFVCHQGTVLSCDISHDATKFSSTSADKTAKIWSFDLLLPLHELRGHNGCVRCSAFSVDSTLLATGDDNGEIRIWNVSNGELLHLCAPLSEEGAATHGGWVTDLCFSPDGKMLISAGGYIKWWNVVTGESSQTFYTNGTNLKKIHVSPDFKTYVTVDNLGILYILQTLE

[12] = target: T4, Tyrosyl-DNA phosphodiesterase 2 (Homo sapiens, UniProt O95551); test: potency against TDP2 phosphodiesterase activity – biochemical, epi absorbance, IC50, dose response (AID 743297)
T4 sequence (O95551 whole entry): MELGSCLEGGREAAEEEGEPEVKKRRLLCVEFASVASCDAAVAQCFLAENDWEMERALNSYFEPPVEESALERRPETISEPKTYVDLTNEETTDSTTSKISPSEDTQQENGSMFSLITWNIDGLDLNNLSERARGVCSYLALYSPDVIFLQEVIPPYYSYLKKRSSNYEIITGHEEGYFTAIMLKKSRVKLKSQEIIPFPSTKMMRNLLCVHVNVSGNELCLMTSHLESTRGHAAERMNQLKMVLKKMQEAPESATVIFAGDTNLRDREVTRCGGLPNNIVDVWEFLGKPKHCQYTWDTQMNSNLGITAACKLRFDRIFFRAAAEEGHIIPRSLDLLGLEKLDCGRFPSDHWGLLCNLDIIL

[13] = target: T5, SUMO-activating enzyme (Homo sapiens, UniProt Q9UBT2); test: blockers of UBC9-mediated SUMO conjugation – biochemical, AlphaScreen, SUMOylation inhibitor project, confirmation (AID 2018); format: functional
[14] = target: T5, SUMO-activating enzyme; test: blockers of SAE1/SAE2–UBC9 SUMO transfer – biochemical, HTRF, uHTS, primary screen (AID 2006); format: protein-complex assay
[15] = viability loss in Vero cells – cytotoxicity control for Vif-APOBEC3G degradation inhibitor project, dose response (AID 1117358); format: functional; details: Vero

T5 sequence (Q9UBE0 whole entry): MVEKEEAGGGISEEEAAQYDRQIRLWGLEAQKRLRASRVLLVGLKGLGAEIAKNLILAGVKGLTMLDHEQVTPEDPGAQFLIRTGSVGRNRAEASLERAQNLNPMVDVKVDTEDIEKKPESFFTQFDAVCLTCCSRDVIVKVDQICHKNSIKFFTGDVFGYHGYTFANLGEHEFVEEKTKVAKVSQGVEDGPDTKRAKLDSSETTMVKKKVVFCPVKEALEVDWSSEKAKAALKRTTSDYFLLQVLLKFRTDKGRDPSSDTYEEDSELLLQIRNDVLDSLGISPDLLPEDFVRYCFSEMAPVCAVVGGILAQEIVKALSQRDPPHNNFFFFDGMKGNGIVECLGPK
T5 sequence (Q9UBT2 whole entry): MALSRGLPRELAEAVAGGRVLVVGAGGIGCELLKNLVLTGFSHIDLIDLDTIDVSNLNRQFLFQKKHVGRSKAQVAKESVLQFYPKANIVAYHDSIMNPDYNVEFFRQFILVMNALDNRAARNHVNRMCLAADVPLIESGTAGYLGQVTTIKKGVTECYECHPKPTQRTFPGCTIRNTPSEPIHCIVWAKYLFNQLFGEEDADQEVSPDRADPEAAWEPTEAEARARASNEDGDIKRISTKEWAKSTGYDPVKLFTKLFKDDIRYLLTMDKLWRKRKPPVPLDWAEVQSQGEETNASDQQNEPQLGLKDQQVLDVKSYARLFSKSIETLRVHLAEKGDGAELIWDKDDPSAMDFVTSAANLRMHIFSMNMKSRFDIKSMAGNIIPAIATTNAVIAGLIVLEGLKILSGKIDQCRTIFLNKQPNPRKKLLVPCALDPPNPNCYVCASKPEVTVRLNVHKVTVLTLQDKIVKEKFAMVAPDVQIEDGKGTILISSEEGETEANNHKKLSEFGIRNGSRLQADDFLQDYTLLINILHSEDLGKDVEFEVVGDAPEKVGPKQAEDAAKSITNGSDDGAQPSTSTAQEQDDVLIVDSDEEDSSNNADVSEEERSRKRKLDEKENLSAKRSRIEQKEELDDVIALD

SMILES: CCN(Cc1ccc(C#CCCO)cc1)CC1CCCN(CCc2cccc(F)c2)C1 (stereo not given)
- EC50 [1]: < 0.1 µM (active)
- EC50 [2]: 8.84 µM (active)
- EC50 [3]: 0.369 µM (active)

SMILES: CCOc1ccc(NC(=O)N(C2CCCCCC2)C2CCN(C(C)=O)CC2)cc1
- IC50 [4]: > 100 µM (active)

SMILES: CC(=O)c1cccc(CN2CCCC(CCC(=O)NCc3ccccc3F)C2)c1 (stereo not given)
- EC50 [1]: < 0.1 µM (active)
- EC50 [2]: > 60 µM (not active)
- EC50 [3]: 0.04 µM (active)

SMILES: O=C(O)Cc1c(O)nc2ccc(Br)cc2c1-c1ccccc1Cl
- IC50 [5]: 23.1 µM (active)

SMILES: Oc1c(Br)cc(Br)cc1CNc1cccc2cccnc12
- EC50 [6]: 101 µM (active)
- EC50 [7]: 6.08 µM (active)
- EC50 [8]: > 150 µM (not active)
- EC50 [9]: > 38 µM (not active)
- EC50 [10]: 9.25 µM (active)
- IC50 [11]: 40.2 µM (active)
- IC50 [12]: > 128 µM (inactive)

SMILES: Cc1ccc(S(=O)(=O)n2ccc(OC(=O)c3cccs3)n2)cc1
- IC50 [13]: 3.61 µM (active)
- IC50 [14]: 94.8 µM (active)

SMILES: O=C(Nc1nccs1)c1cn(-c2ccccc2)nc1-c1ccccc1
- IC50 [4]: > 100 µM (active)

SMILES: Cc1ccc(-c2nn(C)c(=O)c3ccccc23)cc1CNC(=O)c1ccccc1
- IC50 [5]: 7.39 µM (active)

SMILES: Cc1cccc(N2CCN(C(=O)c3ccncc3)CC2)c1C
- CC50 [15]: > 40 µM (active)
